Data reported in patent publication US5188937A, “Layered sandwich assay method for chlamydia and materials therefor” (Becton, Dickinson and Company, priority 1991, dated 1993).

Target: T1, Rabbit Liver Esterase (E.C. 3.1.1.1) (Oryctolagus cuniculus, UniProt P12337)
T1 construct: from tissue; host or cells: rabbit liver
Assay: Inhibition constants, esterase hydrolysis of o-nitrophenyl butyrate followed spectrophotometrically
Type: biochemical
Details: RLE; 50 mM Tris pH=8.0; enzyme and inhibitor incubated at ambient temperature for 20 minutes
Description: Inhibition constants were measured in 50 mM Tris pH=8.0. Enzyme and inhibitor were incubated at ambient temperature for 20 minutes. Substrate for the enzyme was then added and the rate of hydrolysis was followed spectrophotometrically. The substrate for PLE and RLE was o-nitro-phenylbutrate and for AChE was acetyl thiocholine and Ellman's reagent.

T1 sequence (P12337 19-565): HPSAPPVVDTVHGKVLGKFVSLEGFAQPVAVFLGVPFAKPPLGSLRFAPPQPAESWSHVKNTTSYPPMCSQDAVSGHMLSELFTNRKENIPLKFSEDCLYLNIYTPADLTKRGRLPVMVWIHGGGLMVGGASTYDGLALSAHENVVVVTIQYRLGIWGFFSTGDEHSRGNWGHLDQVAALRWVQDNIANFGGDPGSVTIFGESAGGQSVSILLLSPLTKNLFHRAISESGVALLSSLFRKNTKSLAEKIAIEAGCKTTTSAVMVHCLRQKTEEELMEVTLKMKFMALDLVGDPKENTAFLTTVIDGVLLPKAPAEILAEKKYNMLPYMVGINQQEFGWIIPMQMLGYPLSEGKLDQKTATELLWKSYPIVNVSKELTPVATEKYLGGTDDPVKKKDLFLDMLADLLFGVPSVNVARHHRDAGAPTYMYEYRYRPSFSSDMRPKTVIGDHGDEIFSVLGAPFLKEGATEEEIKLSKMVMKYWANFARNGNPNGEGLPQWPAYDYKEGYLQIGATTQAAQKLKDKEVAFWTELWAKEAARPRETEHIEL

Structure (SMILES)	Ki [nM]
O=C(CCCCc1ccc(O)cc1)C(F)(F)F [1,1,1-trifluoro-6-(4-hydroxyphenyl)-2-hexanone]	20
O=C(CCCc1ccc(O)cc1)C(F)(F)F [1,1,1-trifluoro-5-(4-hydroxyphenyl)-2-pentanone]	10
O=C(CCc1ccc(O)cc1)C(F)(F)C(F)(F)F [1,1,1,2,2-pentafluoro-5-(4-hydroxyphenyl)-3-pentanone]	800
O=C(CCc1ccc(O)cc1)C(F)(F)F [1,1,1-trifluoro-4-(4-hydroxyphenyl)-2-butanone]	20
O=C(CCc1cccc(O)c1)C(F)(F)F [1,1,1-trifluoro-4-(3-hydroxyphenyl)-2-butanone]	100
O=C(CCCc1cccc(O)c1)C(F)(F)F [1,1,1-trifluoro-5-(3-hydroxyphenyl)-2-pentanone]	170
O=C(Cc1ccc(O)cc1)C(F)(F)F [1,1,1-trifluoro-3-(4-hydroxyphenyl)propanone]	2000
